The results in this text go back to article PMC2649378 (European Journal of Pharmacology, 2008).

Numbering of substitutions follows the chain as printed.

Experiment [1] deals with T1, N128A mutant 5-HT3A receptors (Mus musculus, UniProt P23979, N128A).
T1 construct: expressed in transfected cells; host or cells: HEK 293 cells (pcDNA3.1); Kunkel mutagenesis
T1 sequence (P23979 24-489 N128A): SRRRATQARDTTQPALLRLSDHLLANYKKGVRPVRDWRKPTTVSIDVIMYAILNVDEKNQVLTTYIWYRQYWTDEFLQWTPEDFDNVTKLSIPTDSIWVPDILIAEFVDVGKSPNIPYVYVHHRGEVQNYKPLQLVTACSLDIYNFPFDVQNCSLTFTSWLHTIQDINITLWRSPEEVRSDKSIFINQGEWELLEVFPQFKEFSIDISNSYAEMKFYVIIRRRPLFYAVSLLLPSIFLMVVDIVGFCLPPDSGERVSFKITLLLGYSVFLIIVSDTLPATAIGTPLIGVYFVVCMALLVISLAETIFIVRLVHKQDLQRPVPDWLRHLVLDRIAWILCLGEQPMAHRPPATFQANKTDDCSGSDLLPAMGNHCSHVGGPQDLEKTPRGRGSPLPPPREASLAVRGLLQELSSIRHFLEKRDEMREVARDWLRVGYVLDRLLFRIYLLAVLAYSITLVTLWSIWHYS
Briefly: [3H]granisetron competition binding, N128A mutant 5-HT3A receptors. The protocol: (§1) Mouse 5-HT3A (accession number: AY605711) or 5-HT3B (accession number: NM_020274, kindly provided by Ewen Kirkness) subunit cDNAs were cloned into pGEMHE for oocyte expression ([Liman et al., 1992]). cRNA was in vitro transcribed from linearised (NheI) plasmid cDNA template using the mMessage mMachine T7 kit (Ambion, Austin, Texas, USA). Stage V and VI oocytes were injected with 50 ng–100 ng cRNA, and recorded from 1–4 days post-injection. For expression in HEK 293 cells, 5-HT3 receptor subunit cDNAs were cloned into pcDNA3.1 (Invitrogen Ltd., Paisley, UK.). Mutagenesis reactions were performed using the Kunkel method and confirmed by DNA sequencing. […]
(§2) This was undertaken in HEK 293 cells which provide an established and robust method of studying ligand binding. […] Radioactivity was determined by scintillation counting using a Beckman LS6000SC (Fullerton, California, USA). Competition binding data were analyzed by iterative curve fitting (GraphPad Prism v3.02, GraphPad Software, San Diego, California, USA), according to the equation: y=Bmin+Bmax−Bmin/1+10^[L]−logIC50 where Bmin is the lowest total binding, Bmax is the maximum specific binding at equilibrium, [L] is the concentration of competing ligand and IC50 is the concentration of competing ligand that blocks half of the specific bound radioligand. […]

In experiment [2] the target is T2, E236A mutant 5-HT3A receptors (Mus musculus, UniProt P23979, E236A).
T2 construct: expressed in transfected cells; host or cells: HEK 293 cells (pcDNA3.1); Kunkel mutagenesis
T2 sequence (P23979 24-489 E236A): T1 sequence (P23979 24-489 N128A) with A105N, E213A
Description: [3H]granisetron competition binding, E236A mutant 5-HT3A receptors. How it is done: as §1, §2

Usually Ki stands for the equilibrium dissociation constant of an inhibitor or competing ligand from its target. A high value points to lower affinity.

For the compound `NCCc1c[nH]c2ccc(F)cc12` [5-FT, 5-fluorotryptamine], the results for the Ki in experiment [1] and in experiment [2] were 2430 ± 470 nM and 1620 ± 410 nM, respectively.
